Measurements from paper PMC12254379, “Artesunate induces ferroptosis in diffuse large B-cell lymphoma cells by targeting PRDX1 and PRDX2” (Cell Death & Disease, 2025).

Assays:
rhPRDX1 (PRDX1) [1] = target: T1, rhPRDX1 (PRDX1) (Homo sapiens, UniProt Q06830); assay: intrinsic fluorescence titration, Hill plot; format: binding
T1 construct: pET28a His-tagged, expressed in E. coli BL21, His-purified; homodimer in docking model; endogenous protein of U2932 lysate in the Biotin-ART pull-down
T1 sequence (Q06830 2-199): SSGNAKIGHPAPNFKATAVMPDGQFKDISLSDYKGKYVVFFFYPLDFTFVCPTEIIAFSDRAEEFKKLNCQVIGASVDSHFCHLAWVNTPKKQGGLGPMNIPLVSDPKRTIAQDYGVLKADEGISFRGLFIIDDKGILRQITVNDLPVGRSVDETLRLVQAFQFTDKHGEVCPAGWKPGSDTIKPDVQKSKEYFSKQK

rhPRDX2 (PRDX2) [2] = target: T2, rhPRDX2 (PRDX2) (Homo sapiens, UniProt P32119); assay: CD thermal denaturation; format: binding; conditions: 10 μM protein, 1 mM ART, 20 mM Tris-HCl
T2 construct: pET28a His-tagged, expressed in E. coli Rosetta, His-purified; decamer in docking model; endogenous protein of U2932 lysate in the Biotin-ART pull-down
T2 sequence (P32119 2-198): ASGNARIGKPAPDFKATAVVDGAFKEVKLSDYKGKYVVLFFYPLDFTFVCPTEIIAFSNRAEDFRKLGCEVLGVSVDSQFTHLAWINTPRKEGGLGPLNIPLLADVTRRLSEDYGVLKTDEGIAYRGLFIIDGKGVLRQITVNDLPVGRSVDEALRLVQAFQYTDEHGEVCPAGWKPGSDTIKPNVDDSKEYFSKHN

rhPRDX2 (PRDX2) [3] = target: T2, rhPRDX2 (PRDX2); assay: intrinsic fluorescence titration, Hill plot; format: binding
rhPRDX1 (PRDX1) [4] = target: T1, rhPRDX1 (PRDX1); assay: H2O2 reduction assay, residual H2O2 kit; format: biochemical; conditions: 20 μM protein, 30 min preincubation, 100 μM H2O2, RT

- Kd (rhPRDX1 (PRDX1) [1]): 6.1 µM
- Tm (without to with ART) (rhPRDX2 (PRDX2) [2]): 57 to 61 °C
- Kd (rhPRDX2 (PRDX2) [3]): 5.24 µM
Compound: C[C@H]1[C@H](OC(=O)CCC(=O)O)O[C@@H]2O[C@@]3(C)CC[C@H]4[C@H](C)CC[C@@H]1[C@@]24OO3 [Artesunate]
- H2O2 reduction assay, residual H2O2 kit (rhPRDX1 (PRDX1) [4]): ART suppressed the peroxidase activity of rhPRDX1 and rhPRDX2 in a dose-dependent manner
